Laboratory results taken from publication PMC12598832, “Synthesis and Anticancer Potential of New Benzimidazole Theranostic” (ChemistryOpen, 2025).
Several values for one entry are separate records, joined by “and”; a condition that tells them apart may be missing. Equal entries are not always repeated. Structures can show the parent of a compound that is named as a salt. Where two headings read alike, the source gives them in different places.

Tests used:
[1] = biological target: T1, SIRT2 human recombinant (Homo sapiens, UniProt Q8IXJ6); assay: SIRT2 Direct Fluorescent Screening Assay Kit (Cayman); assay type: biochemical; conditions: for IC50: five concentrations 1-50 μM
T1 construct: purchased Cayman Chemicals, Ann Arbor 700,280
T1 sequence (Q8IXJ6 1-389): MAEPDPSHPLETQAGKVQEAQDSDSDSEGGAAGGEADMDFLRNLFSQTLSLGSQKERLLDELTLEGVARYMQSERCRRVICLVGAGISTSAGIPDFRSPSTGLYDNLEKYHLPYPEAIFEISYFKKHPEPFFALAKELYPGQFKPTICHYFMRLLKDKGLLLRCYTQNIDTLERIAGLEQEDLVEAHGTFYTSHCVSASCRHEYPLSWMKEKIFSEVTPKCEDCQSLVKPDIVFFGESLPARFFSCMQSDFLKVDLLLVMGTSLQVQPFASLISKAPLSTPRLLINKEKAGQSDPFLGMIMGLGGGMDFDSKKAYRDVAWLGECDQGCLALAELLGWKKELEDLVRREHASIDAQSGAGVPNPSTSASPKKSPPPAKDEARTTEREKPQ
Procedure: The SIRT2 inhibitory activity of the compounds was evaluated using the SIRT2 Direct Fluorescent Screening Assay Kit (Cayman Chemicals, Ann Arbor, C/N: 700,280) according to the manufacturer's instructions. The SIRT2 peptide substrate comprised amino acids 317–320 of human p53 conjugated to […] (Gln‐Pro‐Lys‐Lys(ε‐acetyl)‐AMC). […] Subsequently, 50 μl of developer solution (6 μg μl^−1 SIRT2 developer, 2 mM nicotinamide) was added. The mixture was incubated for a further 30 min at room temperature. […] The fluorescence was measured with excitation and emission wavelengths of 355 and 460 nm, respectively, using the Tecan Infinite 200 Pro. The percentage inhibition was determined as the ratio of […] under each experimental condition to that of the control.

[2] = system: H103 (oral squamous cell carcinoma, OSCC) cell line; assay: MTT cell proliferation assay, H103; assay type: cell-based; conditions: for IC50: MTT, 72 h, read-out: H103 IC50 [μM] ± SEM; for H103 Selectivity Index (SI): versus HEK293
Text: (§1) The H103 and H314 OSCC cell lines were obtained from the European Collection of Cell Cultures (ECACC). The HCT116 and HEK293 cell lines were obtained from the American Type Culture Collection (Rockville, MD).
(§2) All cell lines were maintained in high‐glucose Dulbecco's Modified Eagle Media (DMEM) (Sigma‐Aldrich, Buchs, Switzerland). The culture media was supplemented with 10% fetal bovine serum (FBS) (TICO, Amsterdam, Netherlands) and 1% penicillin‐streptomycin. Prior to the cell‐based assay, cell lines were incubated at 37 °C in a 5% CO2 humidified atmosphere
(§3) Cells were seeded in 96‐well plates at a density of 5 × 10^3 per well. After 24 h of seeding, the cells were treated with 50 μM of the compounds of interest (final concentration 0.25% DMSO) and allowed to adhere for 72 h at 37 °C in a 5% CO2 humidified atmosphere. The 3‐(4,5‐dimethylthiazol‐2‐yl)‐2,5‐diphenyltetrazolium bromide (MTT) assay was conducted to examine the cell cytotoxicity profiles of the synthesized compounds. Briefly, the treatment media was discarded, and 0.5 mg mL^−1 of MTT was added to each well. The plates were incubated for another 4 h at 37 °C in a 5% CO2 humidified atmosphere. Following the incubation, the medium‐MTT solution was removed, and 100 μL of DMSO was added to dissolve the formazan crystals. The absorbance was measured at 570 nm, with the reference wavelength at 620 nm, using the Tecan Infinite 200 Pro. The experiment was carried out in triplicate.

[3] = system: H314 (OSCC) cell line; assay: MTT cell proliferation assay, H314; assay type: cell-based; conditions: for cytotoxic effect in preliminary screening, H314: 50 μM, versus control 0.25% DMSO, ANOVA/Tukey; for cytotoxic effect in preliminary screening, H314 / IC50: 72 h; for IC50: MTT, read-out: H314 IC50 [μM] ± SEM; for H314 Selectivity Index (SI): versus HEK293
Text: as §1, §2
as §3, with “After 24 h of seeding, the cells were treated with 50 μM of the compounds of interest (final concentration 0.25% DMSO) and allowed to adhere for 72 h at 37 °C in a 5% CO2 humidified atmosphere.” left out

[4] = system: HCT116 (colorectal carcinoma) cell line; assay: MTT cell proliferation assay, HCT116; assay type: cell-based; conditions: for IC50: MTT, 72 h, read-out: HCT116 IC50 [μM] ± SEM; for HCT116 Selectivity Index (SI): versus HEK293
[5] = system: HEK293 cells; assay: MTT cell proliferation assay, HEK293 (noncancerous); assay type: cell-based, human; conditions: read-out: HEK293 IC50 [μM] ± SEM
Text: as §1, §2, §3

[6] = Fluorescence properties (molar extinction coefficient, quantum yield, Stokes shift); assay type: physicochemical
Procedure: A series of dilutions of V7 (dissolved in DMSO) was prepared. The absorbance of the solutions at 326 nm was recorded on the UviLine 9400 spectrophotometer using a quartz cuvette (10 × 10 mm). A calibration curve of absorbance against concentration was generated. The molar extinction coefficient was calculated from the gradient of the line of best fit, in accordance with Beer–Lambert's law.
A series of dilutions of V7 (dissolved in DMSO) was prepared. The fluorescence emission peak at each concentration was determined using the Tecan Infinite 200 Pro microplate reader (λex = 326 nm and λem = 492 nm). The […] peak was plotted against the fluorescence emission peak and compared to that of a quinine sulfate standard, which has a known quantum yield.
The quantum yield of V7 was subsequently calculated using the following equation Φ=ΦR(Grad/GradR)(n^2/nr2)
The quinine sulfate reference has a quantum yield of 54.6% when dissolved in 0.5 M H2SO4.^[ [26] ^] The refractive index of 0.5 M H2SO4 is 1.346, while the refractive index of DMSO is 1.479.^[ [27] ^]

[7] = system: H103 (oral squamous cell carcinoma, OSCC) cell line; design: method as in PMID 32904142; conditions: previous study; cited from earlier work
[8] = design: method as in ref 26 = [26]; 26 W. H. Melhuish , J. Phys. Chem. 1961 , 65 , 229 .; conditions: in 0.5 M H2SO4; cited from earlier work
[9] = system: H103 cell line; design: method as in ref 28 Khoo et al.; conditions: 24 h treatment; ref 28 Khoo et al.; cited from earlier work
[10] = system: H314 cell line; design: method as in ref 28 Khoo et al.; conditions: 24 h treatment; ref 28 Khoo et al.; cited from earlier work
[11] = compound 50 μM, preliminary screening, read-out: Percentage SIRT2 inhibition (%)
[12] = compound 50 μM, preliminary screening
[13] = dose-response, 50 μM, read-out: % Inhibition of SIRT2

Structure (SMILES)	inhibition at 50 µM [1, 11] [%]	Percentage SIRT2 inhibition (%) [1, 12]	IC50 [3] [µM]	H314 Selectivity Index (SI) [3]	IC50 ([4]; Homo sapiens, HCT-116) [µM]	HCT116 Selectivity Index (SI) [4]	IC50 ([5]; Homo sapiens, HEK293, 72 h) [µM]	H103 Selectivity Index (SI) [2]	also measured
CCOC(=O)c1ccc2[nH]c(-c3ccc(O)c(OC)c3)nc2c1 [Compound V3]	61.9 ± 12	–	–	–	–	–	–	–	–
CCOC(=O)c1ccc2[nH]c(-c3ccc(OC)c(OC)c3)nc2c1 [Compound V8]	25.5 ± 12.9	–	–	–	–	–	–	–	–
CCOC(=O)c1ccc2[nH]c(-c3ccccc3OC)nc2c1 [Compound V6]	11.8 ± 11.4	weakest inhibitory effect	–	–	–	–	–	–	–
CCOC(=O)c1ccc2[nH]c(-c3ccc(O)c(O)c3)nc2c1 [Compound V9]	39.3 ± 7.3	–	37.8 ± 1.81	1.37	16.6 ± 3.52	3.13	51.8 ± 5.65	–	IC50 ([2]; Homo sapiens, H103): > 50 µM; cytotoxic effect in preliminary screening, H314 [3]: highly significant effects
CCOC(=O)c1ccc2[nH]c(-c3ccc(OC)c(O)c3)nc2c1 [Compound V4]	–	no SIRT2 inhibition	–	–	–	–	–	–	–
CCOC(=O)c1ccc2[nH]c(-c3ccccc3O)nc2c1 [Compound V7]	> 95	complete inhibition of enzymatic activity	16.7 ± 1.13	2.66	13.3 ± 2.52	3.34	44.4 ± 3.03	3.81	IC50 ([2]; Homo sapiens, H103): 11.6 ± 1.04 µM; cytotoxic effect in preliminary screening, H314 [3]: highly significant effects; inhibition at 1 µM ([1]; dose-response): 0.2 ± 5.8%; inhibition at 3 µM ([1]; dose-response): 32.8 ± 2.8%; inhibition at 10 µM ([1]; dose-response): 66.1 ± 7.1%; inhibition at 25 µM ([1]; dose-response): 81.3 ± 3.2%; inhibition at 50 µM [1, 13]: 100 ± 3%; IC50 [1]: 6.4 µM; molar extinction coefficient (molar absorptivity ε) ([6]; in DMSO, absorbance at 326 nm): 34,477 M^−1 cm^−1 and 34 477 M^−1 cm^−1; quantum yield Φ ([6]; in DMSO, λex 326 nm, λem 492 nm, versus quinine sulfate): 26%; Stokes shift Δλ ([6]; λex 326 nm, λem 492 nm): 166 nm
CCOC(=O)c1ccc2[nH]c(-c3cccc(OC)c3)nc2c1 [Compound V5]	–	no SIRT2 inhibition	31.7 ± 1.27	1.44	11.2 ± 3.14	4.08	45.6 ± 2.18	2.00	IC50 ([2]; Homo sapiens, H103): 22.8 ± 3.84 µM; cytotoxic effect in preliminary screening, H314 [3]: highly significant effects
CCOC(=O)c1ccc2[nH]c(-c3ccc(O)cc3O)nc2c1 [Compound V2]	> 95	complete inhibition of enzymatic activity	–	–	–	–	–	–	inhibition at 1 µM ([1]; dose-response): 19.4 ± 2.4%; inhibition at 3 µM ([1]; dose-response): 29.5 ± 6.6%; inhibition at 10 µM ([1]; dose-response): 44.5 ± 0.2%; inhibition at 25 µM ([1]; dose-response): 59.8 ± 0.1%; inhibition at 50 µM [1, 13]: 77 ± 0.1%; IC50 [1]: 10.8 µM
CCOC(=O)c1ccc2[nH]c(-c3ccc4c(c3)OCO4)nc2c1 [BZD9Q1, reference compound]	–	–	> 100	–	11.5 ± 2.3	1.60	18.4 ± 2.95	3.15	IC50 [7]: 5.83 µM
C=C[C@H]1C[N@@]2CC[C@H]1C[C@H]2[C@H](O)c1ccnc2ccc(OC)cc12 [quinine sulfate]	–	–	–	–	–	–	–	–	quantum yield of reference [8]: 54.6%
N.N.[Cl][Pt][Cl] [Cisplatin, reference compound]	–	–	15.1 ± 1.05	0.23	–	0.43	–	1.91	IC50 [2]: 1.85 ± 0.42 µM; sensitivity in H103 relative to H314 ([2]; from IC50 values of Table 2): 8 fold; IC50 [4]: 8.24 ± 0.86 µM; IC50 ([5]; 72 h): 3.54 ± 0.18 µM; IC50 [9]: 15 µM; IC50 [10]: 200 µM
CCOC(=O)c1ccc2[nH]c(-c3cccc(O)c3)nc2c1 [Compound V1]	25.4 ± 11.8	–	–	–	–	–	–	–	–
